# Experimental data taken from patent US11230526B1, “Cylcoalkenyl derivatives useful as agonists of the GPR120 and/or GPR40 receptors” (Janssen Pharmaceutica NV, priority 2018, dated 2022).
# Where “and” joins values, the source holds several entries; their conditions need not be identical. Identical values can stand only once.
# Legend:
# Type in all cases: cell-based
# [1] = target: T1, long form of human GPR120 (Homo sapiens, UniProt Q5NUL3); test: Human GPR120 DiscoveRx PathHunter Beta-Arrestin assay, Procedure β-arrestin A
# T1 construct: host or cells: PathHunter CHO-K1 GPR120 β-Arrestin Cell Line
# T1 sequence (Q5NUL3 1-377 isoform Q5NUL3-1): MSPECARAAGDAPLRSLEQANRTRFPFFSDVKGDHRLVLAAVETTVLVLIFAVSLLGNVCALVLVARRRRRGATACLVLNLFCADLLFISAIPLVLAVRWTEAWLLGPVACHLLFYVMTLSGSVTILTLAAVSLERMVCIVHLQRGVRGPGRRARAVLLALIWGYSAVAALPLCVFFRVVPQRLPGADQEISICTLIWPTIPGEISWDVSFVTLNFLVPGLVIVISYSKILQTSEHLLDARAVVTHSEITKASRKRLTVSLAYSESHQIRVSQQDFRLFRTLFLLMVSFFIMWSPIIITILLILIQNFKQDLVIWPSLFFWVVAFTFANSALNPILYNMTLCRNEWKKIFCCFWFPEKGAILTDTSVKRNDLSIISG
# T1 sequence (P32121 whole entry partner): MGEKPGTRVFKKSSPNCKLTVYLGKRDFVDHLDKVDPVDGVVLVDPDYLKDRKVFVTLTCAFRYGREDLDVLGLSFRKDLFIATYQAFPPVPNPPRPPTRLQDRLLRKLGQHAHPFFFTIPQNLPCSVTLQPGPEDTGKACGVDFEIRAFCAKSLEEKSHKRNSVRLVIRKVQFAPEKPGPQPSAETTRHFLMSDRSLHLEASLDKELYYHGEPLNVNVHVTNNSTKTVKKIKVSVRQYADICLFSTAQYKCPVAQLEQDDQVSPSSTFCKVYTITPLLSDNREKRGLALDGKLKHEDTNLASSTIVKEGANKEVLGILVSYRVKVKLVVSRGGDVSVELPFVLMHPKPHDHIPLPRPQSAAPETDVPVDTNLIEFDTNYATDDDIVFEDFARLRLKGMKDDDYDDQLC
# Description: Human GPR120 DiscoveRx PathHunter® Beta-Arrestin Assay Assay Principle:
# The binding of an agonist (medium/long chain fatty acids or small molecule agonists) to the G-protein-coupled receptor GPR120 activates phospholipase C, leading to release of intracellular Ca^+2 through the generation of inositol 1,4,5-trisphosphate (InsP3 or IP3). GPR120 activation can also trigger intracellular signaling via recruitment of Beta-Arrestin. In the present method, agonist-induced activation of the human GPR120 receptor is monitored through the use of PathHunter® CHO-K1 GPR120 Beta-Arrestin Cell Line engineered by DiscoveRx, as detailed below. The cell lines are designed to co-express both the ProLink/Enzyme Donor (PK)-tagged GPCR and the Enzyme […] (EA)-tagged Beta-Arrestin fusion proteins. Upon GPR120 receptor stimulation/activation, the EA-tagged Beta-Arrestin portion is translocated to the tagged receptor, where the two enzyme fragments are brought within close proximity. Under these conditions, these fragments can interact and form an active Beta-gal enzyme complex through Enzyme Fragment Complementation (EFC). This active Beta-gal complex can enzymatically hydrolyse the substrate to produce a detectable light signal; therefore, activation as a function of agonist concentration can be expressed as an EC50 value to determine relative compound activities. This in vitro assay therefore serves to assess compound agonist activity of the GPR120.
# In Procedure β-arrestin A, the cell used were PathHunter® CHO-K1 GPR120 β-Arrestin Cell Line, expressing the long form of human GPR120 (Genbank accession number NM_181745), with 3000 cells per well.
# The selected CHO-K1 GPR120 β-Arrestin cells were cultured in Ham's F12 media supplemented with 10% fetal bovine serum (FBS), 1% Glutamine, 1×p/s, 800 μg/mL G418 and 300 μg/mL Hygromycin B (for selection). Cell stocks were maintained and grown in a sub-confluent state using standard cell culture procedures. The day before the experiment, the cells were harvested with non-enzymatic cell dissociation buffer and re-suspended in complete growth media at the desired concentration. A Corning 384-plate was then seeded with the proper number of cells in a volume of 25 μL, per well. The seeded plates were incubated overnight at 37° C.
# On the day of the experiment, the Assay Buffer containing (a) HBSS with Ca^++ and Mg^++, (b) 20 mM HEPES, and (c) 0.1% BSA stabilizer (pH 7.4) was prepared. The growth medium was gently removed from the cell plates and 20 μL of Assay Buffer added to each well. The plate was then incubated at 37° C. for 60 min. Test compounds were serially diluted in Assay Buffer to desired concentrations (more particularly to one or more of the following μM concentrations: 25, 12.5, 6.25, 3.12, 1.56, 0.78, 0.39, 0.19, 0.10, 0.05, 0.02, 0.01). Five μL of compound dilution was then added to each well and the plate incubated at 37° C. for 90 min. The detection reagents were prepared according to the manufacture's instruction. Twelve μL of the detection reagents were added to each well and the plate incubated at room temperature for 60 min.
# The plates were read on an EnVision instrument, using Protocol name: Luminescence, Plate type: 384 Costar, Measurement height: 3 mm, Measurement time: 1 s, Aperture: 384 Plate aperture. The % Activity relative to the positive control was calculated using the following equation:
# The % Activity values were plotted versus the concentration of test compound and fitted to a sigmoidal dose-response curve with a Hill slope=1 (fixed value) using nonlinear regression with GraphPad Prism 5.0 to calculate the EC50 values. The Fitting Equation was: Y=Bottom+(Top-Bottom)/(1+10^((Log EC50−X)*HillSlope)), where X is the log of the concentration and Y is the response.
# Human GPR120 short form = target: T2, Human GPR120 short form (Homo sapiens, UniProt Q5NUL3); test: Human GPR120 calcium flux assay, Procedure Calcium B (4200 cells/well)
# T2 construct: expressed in transfected cells
# T2 sequence (Q5NUL3 1-361): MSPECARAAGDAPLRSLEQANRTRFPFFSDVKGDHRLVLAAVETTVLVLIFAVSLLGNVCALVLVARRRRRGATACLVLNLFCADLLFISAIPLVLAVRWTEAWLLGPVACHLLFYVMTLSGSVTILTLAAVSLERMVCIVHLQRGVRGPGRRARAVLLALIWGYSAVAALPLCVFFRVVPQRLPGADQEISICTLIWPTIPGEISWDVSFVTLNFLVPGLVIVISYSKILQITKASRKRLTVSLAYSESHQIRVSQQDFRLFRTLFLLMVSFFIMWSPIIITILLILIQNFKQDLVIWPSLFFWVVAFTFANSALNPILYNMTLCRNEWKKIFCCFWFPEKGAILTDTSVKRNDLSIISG
# Procedure, shortened: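 HEK293 cells stably expressing human GPR120 (NM_001195755.1), 4200 cells/well, starved 1 h and loaded with Fluo-4 NW plus probenecid. Ligand-evoked calcium flux read on FLIPR for 300 s after a 10 s baseline. RFU = Fmax−Fmin; EC50 from four-parameter concentration-response fit.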
# human GPR40 = target: T3, human GPR40 (Homo sapiens, UniProt O14842); test: GPR40 calcium flux assay, human GPR40; conditions: HEK293 cells stably expressing GPR40; table does not say human or rat
# T3 construct: expressed in transfected cells
# T3 sequence (O14842 whole entry): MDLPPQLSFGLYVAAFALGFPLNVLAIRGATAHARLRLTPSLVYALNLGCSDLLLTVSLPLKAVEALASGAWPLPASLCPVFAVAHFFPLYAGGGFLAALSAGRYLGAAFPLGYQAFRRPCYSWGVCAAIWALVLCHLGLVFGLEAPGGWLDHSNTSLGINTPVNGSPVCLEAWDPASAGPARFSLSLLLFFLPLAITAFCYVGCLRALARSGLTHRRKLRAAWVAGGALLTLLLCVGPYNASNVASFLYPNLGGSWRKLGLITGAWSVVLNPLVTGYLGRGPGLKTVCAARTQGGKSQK
# Procedure, shortened: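 Cells preincubated 1 h at 37° C. in HBSS, 20 mM HEPES, 0.1% BSA, then Fluo 8 calcium dye 30 min at 37° C. and 15 min at room temperature.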
Structure (SMILES),EC50 [1],EC50 (Human GPR120 short form),EC50 (human GPR40)
Cc1c(CCC(=O)O)ccc(OCC2=C(c3ccc(F)cc3)CC(F)(F)C2)c1C [Compound 10],155 nM,24 nM,> 5 µM
"Cc1cc(CCC(=O)O)cc(Br)c1OCC1=C(c2ccc(Cl)cc2)CCC1 [Compound 30, 3-[3-bromo-4-[[2-(4-chlorophenyl)cyclopenten-1-yl]methoxy]-5-methyl-phenyl]Propanoic Acid]",512 nM,461 nM,> 5 µM
"CC(Cc1ccc(OCC2=C(c3ccc(Cl)cc3)CCC2)c(F)c1)C(=O)O (stereo not drawn) [Compound 34, 3-[4-[[2-(4-chlorophenyl)cyclopenten-1-yl]methoxy]-3-fluoro-phenyl]-2-methyl-Propanoic Acid]",680 nM,–,> 5 µM
"Cc1cc(CC(C)C(=O)O)ccc1OCC1=C(c2ccc(Cl)cc2)CCC1 (stereo not drawn) [Compound 36, 3-[4-[[2-(4-chlorophenyl)cyclopenten-1-yl]methoxy]-3-methyl-phenyl]-2-methyl-Propanoic Acid]",235 nM,193 nM,> 5 µM
"O=C(O)CCc1ccc(OCC2=C(c3ccc(Cl)cc3)CCC2)cc1C(F)(F)F [Compound 39, 3-[4-[[2-(4-chlorophenyl)cyclopenten-1-yl]methoxy]-2-(trifluoromethyl)phenyl]Propanoic Acid]",491 nM,215 nM,0.131 µM and 0.182 µM
Cc1cc(CCC(=O)O)ccc1OCC1=C(c2ccc(F)cc2)CCC1 [Compound 42],340 nM,61 nM,> 5 µM
"O=C(O)CCc1ccc(OCC2=C(c3ccc(F)cc3)CCC2)cc1 [Compound 43, 3-[4-[[2-(4-fluorophenyl)cyclopenten-1-yl]methoxy]phenyl]Propanoic Acid]",208 nM,207 nM,3.03 µM
O=C(O)CCc1ccc(OCC2=C(c3ccc(F)cc3)CCC2)c(F)c1 [Compound 49],123 nM,136 nM,> 5 µM
Cc1cc(OCC2=C(c3ccc(Cl)cc3)CCC2)c(Br)cc1CCC(=O)O [Compound 67],167 nM,73 nM,> 5 µM
Cc1c(CCC(=O)O)cc(Br)c(OCC2=C(c3ccc(Cl)cc3)CCC2)c1Br [Compound 68],1940 nM,517 nM,> 5 µM
"O=C(O)CCc1ccc(OCC2=C(c3ccc(Cl)cc3)CCC2)cc1OC(F)(F)F [Compound 96, 3-[4-[[2-(4-chlorophenyl)cyclopenten-1-yl]methoxy]-2-(trifluoromethoxy)phenyl]Propanoic Acid]",981 nM,875 nM,1.78 µM
"COc1cc(OCC2=C(c3ccc(Cl)cc3)CCC2)ccc1CCC(=O)O [Compound 97, 3-[4-[[2-(4-chlorophenyl)cyclopenten-1-yl]methoxy]-2-methoxy-phenyl]Propanoic Acid]",754 nM,237 nM,0.834 µM
"O=C(O)CCc1ccc(OCC2=C(c3ccc(Cl)cc3)CCC2)c(Cl)c1Cl [Compound 99, 3-[2,3-dichloro-4-[[2-(4-chlorophenyl)cyclopenten-1-yl]methoxy]phenyl]Propanoic Acid]",147 nM,44 nM,> 5 µM
Cc1c(CCC(=O)O)ccc(OCC2=C(c3ccc(F)cc3)CC(F)C2)c1C (stereo not drawn) [Compound 100],168 nM,81 nM,> 5 µM
"O=C(O)CCc1ccc(OCC2=C(c3ccc(Cl)cc3)CCC2)cc1-c1ccccc1 [Compound 136, 3-[4-[[2-(4-chlorophenyl)cyclopenten-1-yl]methoxy]-2-phenyl-phenyl]Propanoic Acid]",788 nM,–,> 5 µM
"O=C(O)CCc1ccc(OCC2=C(c3ccc(Cl)cc3)CCC2)cc1Cl [Compound 143, 3-[2-chloro-4-[[2-(4-chlorophenyl)cyclopenten-1-yl]methoxy]phenyl]Propanoic Acid]",466 nM,–,0.365 µM
"Cc1cc(CC(C)C(=O)O)ccc1OCC1=C(c2ccc(F)cc2)CCC1 (stereo not drawn) [Compound 160, 3-[4-[[2-(4-fluorophenyl)cyclopenten-1-yl]methoxy]-3-methyl-phenyl]-2-methyl-Propanoic Acid]",528 nM,215 nM,> 5 µM
"CCc1cc(OCC2=C(c3ccc(Cl)cc3)CCC2)ccc1CCC(=O)O [Compound 161, 3-[4-[[2-(4-chlorophenyl)cyclopenten-1-yl]methoxy]-2-ethyl-phenyl]Propanoic Acid]",680 nM,–,0.401 µM
"Cc1cc(CCC(=O)O)ccc1OCC1=C(c2ccc(Cl)cc2)CC(F)(F)C1 [Compound 166, 3-[4-[[2-(4-chlorophenyl)-4,4-difluoro-cyclopenten-1-yl]methoxy]-3-methyl-phenyl]Propanoic Acid]",29 nM,24 nM,4 µM
"CC(C)c1cc(OCC2=C(c3ccc(Cl)cc3)CCC2)ccc1CCC(=O)O [Compound 167, 3-[4-[[2-(4-chlorophenyl)cyclopenten-1-yl]methoxy]-2-isopropyl-phenyl]Propanoic Acid]",727 nM,503 nM,1.25 µM
"O=C(O)CCc1cc(F)c(OCC2=C(c3cccs3)CCC(F)(F)C2)c(F)c1 [Compound 559, 3-[4-[[5,5-difluoro-2-(2-thienyl)cyclohexen-1-yl]methoxy]-3,5-difluoro-phenyl]Propanoic Acid]",409 nM,238 nM,–
"Cc1ccc(C2=C(COc3ccc(CCC(=O)O)cc3C)CC(F)(F)CC2)s1 [Compound 561, 3-[4-[[5,5-difluoro-2-(5-methyl-2-thienyl)cyclohexen-1-yl]methoxy]-3-methyl-phenyl]Propanoic Acid]",120 nM,71 nM,–
"Cc1c(CCC(=O)O)ccc(OCC2=C(c3ccc(Cl)s3)CCC(F)(F)C2)c1C [Compound 563, 3-[4-[[2-(5-chloro-2-thienyl)-5,5-difluoro-cyclohexen-1-yl]methoxy]-2,3-dimethyl-phenyl]Propanoic Acid]",237 nM,120 nM,–
"Cc1ccc(C2=C(COc3ccc(CCC(=O)O)c(C)c3C)CC(F)(F)CC2)s1 [Compound 564, 3-[4-[[5,5-difluoro-2-(5-methyl-2-thienyl)cyclohexen-1-yl]methoxy]-2,3-dimethyl-phenyl]Propanoic Acid]",176 nM,90 nM,–
"Cc1c(CCC(=O)O)ccc(OCC2=C(c3ccc(Cl)cc3)CC(F)(F)CC2)c1C [Compound 568, 3-[4-[[2-(4-chlorophenyl)-4,4-difluoro-cyclohexen-1-yl]methoxy]-2,3-dimethyl-phenyl]Propanoic Acid]",363 nM,202 nM,–
